Literature values, collected in PMC11437099 (Nature Communications, 2024).
Read-outs that look alike come from different tables or passages of the source.

What was measured:
[1] = test system: patients with type 2 diabetes
[2] = test system: patients with type 2 diabetes; remark: listed apart in the source

| Substance | Body weight change from baseline ([1]; 0.75 and 1.5 mg doses at 26 weeks) [kg] | HbA1c change from baseline ([2]; 0.75 and 1.5 mg at 26 weeks) [%] | Participants achieving HbA1c <7.0% ([2]; 0.75 and 1.5 mg at 26 weeks) | Body weight change (weight loss) ([1]; 1.2 and 1.8 mg at 52 weeks) [kg] | Participants achieving HbA1c <7.0% ([2]; 1.2 and 1.8 mg at 52 weeks) |
| --- | --- | --- | --- | --- | --- |
| dulaglutide: approved GLP-1 analog (Trulicity) | −1.0 to −1.5 | −1.25 to −1.46 | 63–72% | – | – |
| liraglutide: approved GLP-1 analog (Victoza, Saxenda) (HAEGTFTSDVSSYLEGQAAKEFIAWLVRGRG; chains of the INN, looked up) | – | – | – | −2.05 to −2.45 | 43–51% |
